Experiments:
[1] = tested on: Trypanosoma cruzi; experiment: (§1) GSK_TCAKS: pIC50 H2C9 Imaging: H9c2 Host Cardiomyocytes. […] Cells were then washed once with PBS before infection. T. cruzi trypomastigotes, collected at days 5 to 8 after infection from LLC-MK2 parasite infected cultures, were allowed to swim out for 4h at 37C from a centrifuged pellet (2,500 rpm/10 min/room temperature). Trypomastigotes were then collected and counted in a CASY Cell Counter. Trypomastigotes, in supplemented DMEM, were added to H9c2 cultures in a multiplicity of infection of 1 and incubated for 18 h. Cells were washed once with PBS before incubation of the infected H9c2 monolayer with trypsin (Life-Technologies) to detach cells from the flask. Cells were counted in a CASY Cell Counter using a 150 um capillary and their density set at 5 * 10^4 cells per mL in supplemented assay DMEM. Infected H9c2 were dispensed into 384-well poly-lysine coated assay plates at 50uL per well using a Multidrop Combi dispenser. After seeding them, the plates were incubated at 37C, 5% CO2 for 72h. Cultures were then fixed and stained by addition of 50 uL of a solution containing 8% formaldehyde and 4 uM DRAQ5 DNA dye (BioStatus, UK) per well. […] Five images were collected per well for reliable statistical analysis. Automated image analysis was performed with a script developed on Acapella High Content Imaging and Analysis Software (PerkinElmer). Output: Number of H9c2 Host Cardiomyocytes nuclei to determine drug-related cytotoxicity.; type: functional, organism-based, Rattus norvegicus; conditions: H9c2, 4 h
[2] = tested on: Trypanosoma cruzi; experiment: as §1, with “Trypanosoma cruzi” for “H2C9”, “Amastigotes/Cell.” for “H9c2 Host Cardiomyocytes.”, “number” for “Number”, “amastigotes per cell as infection level measurement.” for “H9c2 Host Cardiomyocytes nuclei to determine drug-related cytotoxicity.”; type: functional, organism-based, Rattus norvegicus; conditions: H9c2, 4 h
[3] = tested on: Trypanosoma brucei brucei; experiment: GSK_TCAKS: pIC50 Trypanosoma brucei viability assay using fluorescence intensity. Assay plates (1536-well) were prepared by dispensing 25nL of compound solution per well using an Echo acoustic dispenser (Labcyte).; type: functional, organism-based; conditions: Lister 427, 2 h
[4] = tested on: Leishmania donovani; experiment: (§2) GSK_TCAKS: pIC50 Leishmania donovani Imaging: Amastigotes/Macrophages. Assay plates (384-well) were prepared by adding 250nL of compound to each well. For single shot assay, the final compound concentration was 5 uM. […] Automated image analysis was performed with a script developed on Acapella High Content Imaging and Analysis Software (PerkinElmer). Output: Average number of amastigotes per macrophage cell were reported for each well.; type: functional, organism-based, Homo sapiens; conditions: THP-1
[5] = tested on: Leishmania donovani; experiment: as §2, with “THP-1 Host Macrophages.” for “Amastigotes/Macrophages.”, “THP-1” for “Average number of amastigotes per macrophage”, “cell count” for “cell”; type: functional, organism-based, Homo sapiens
[6] = tested on: Leishmania donovani; experiment: as §2, with “Infected Macrophages.” for “Amastigotes/Macrophages.”, “Percent” for “Average number”, “infected” for “amastigotes per”, “cells” for “cell”; type: functional, organism-based, Homo sapiens; conditions: THP-1
[7] = GSK_TCAKS: pIC50 HepG2 human cell line viability assay using luminiscence. […] Seeding density was checked to ensure that new mono-layers were not more than 50% confluent at the time of harvesting. Cell suspension was added to 500 mL of the same medium at a final density of 1.2 * 10^5 cells/mL. This cell suspension was dispensed (25 uL, 3000 cells per well) into 384-well clear-bottom plates using a Multidrop Combi dispenser. Prior to addition of the cell suspension, the screening compounds (250 nL) were pre-dispensed into the plates with an Echo liquid handler. Plates were incubated for 48 h at 37C, 5% CO2. After incubation, plates equilibrated at room temperature for 30 min before proceeding to develop the luminescent signal. The signal developer, CellTiter-Glo Reagent, was allowed to equilibrate at room temperature for 30 min and added to the plates (25uL per well) using a Multidrop Combi dispenser. Plates were left for 10 min at room temperature for stabilization and then read using a ViewLux.; type: toxicity, cell-based
[8] = tested on: Leishmania donovani; experiment: GSK_TCAKS: pIC50 Leishmania donovani viability assay using fluorescence intensity. Assay plates (1536-well) were prepared by adding 30nL per well of compound. For single shot assay, the final compound concentration was 5uM. […] Briefly, eGFP LdBOB axenic amastigotes were harvested, fixed and counted in a CASY cell counter (Roche-Applied Science). A final concentration of 1.5 * 10^5 cells per well were prepared in amastigote media containing 500 U/mL penicillin/streptomycin (Invitrogen) and 6uL was dispensed to each experimental well using a Multidrop Combi dispenser (Thermo Scientific). 6uL of assay media was dispensed to control columns used as reference for 100% compound response. Following incubation for 72 h at 37C, 5% CO2, 2 uL of resazurin was added to each well at a final concentration of 0.5 mM in phosphate buffered saline (PBS) with IGEPAL (Sigma-Aldrich), 0.05% (v/v).; type: functional, organism-based
[9] = tested on: Trypanosoma cruzi; experiment: as §1, with “Trypanosoma cruzi” for “H2C9”, “Infected Cells.” for “H9c2 Host Cardiomyocytes.”, “percentage” for “Number”, “infected cells per well as a second infection marker.” for “H9c2 Host Cardiomyocytes nuclei to determine drug-related cytotoxicity.”; type: functional, organism-based, Rattus norvegicus; conditions: H9c2, 4 h
[10] = tested on: NIH3T3; experiment: GSK_TCAKS: pIC50 NIH 3T3 cell line viability assay using luminiscence. Tissue culture surface treated assay plates (1536-well) were used. […] The 100% cells survival control was determined exposing the host-cells to a 0.5% DMSO concentration, whereas the 100% toxicity control was achieved by seeding the cells in presence of Amphotericin B at 50uM. Plates were incubated for four days at 37C, 5% CO2. The assay readout was developed by addition of 5uL of CellTiter-Glo Reagent following the manufacturer's instructions. Luminiscence was measured using a ViewLux.; type: functional, cell-based; conditions: Mus musculus, NIH3T3, 96 h
[11] = tested on: Trypanosoma cruzi; experiment: GSK_TCAKS: pIC50 Trypanosoma cruzi viability assay using beta-GAL activity. This assay was run at single shot at 5uM compound concentration per well. The biological reagents consisted of NIH-3T3 host cells and trypomastigotes parasitic cells; both cell types were set to a 3.3 * 10^5 cells/mL dilution in assay DMEM by means of a CASY cell counter device using a 60um capillary. 6 uL of the mixture were dispensed per well (about 1 * 10^3 host-cells and 1 * 10^3 parasites) with a Multidrop Combi dispenser. […] In all wells, the percentage of DMSO never exceeded 0.5%. Plates incubated for four days at 37C, 5% CO2. The substrate used for the assay fluorescence intensity (FLINT) readout was resorufin-beta-D-galactopiranoside (Sigma-Aldrich) at 5uM per well. It was diluted in PBS supplemented with the soft detergent Igepal (Fluka).; type: functional, organism-based, Mus musculus; conditions: Tulahuen, NIH3T3
[12] = biological target: Sterol 14-alpha demethylase (Trypanosoma cruzi (strain CL Brener), UniProt Q7Z1V1); experiment: GSK_TCAKS: pIC50 CYP51 from Trypanosoma cruzi.; type: functional
Sterol 14-alpha demethylase, sequence (Q7Z1V1 whole entry): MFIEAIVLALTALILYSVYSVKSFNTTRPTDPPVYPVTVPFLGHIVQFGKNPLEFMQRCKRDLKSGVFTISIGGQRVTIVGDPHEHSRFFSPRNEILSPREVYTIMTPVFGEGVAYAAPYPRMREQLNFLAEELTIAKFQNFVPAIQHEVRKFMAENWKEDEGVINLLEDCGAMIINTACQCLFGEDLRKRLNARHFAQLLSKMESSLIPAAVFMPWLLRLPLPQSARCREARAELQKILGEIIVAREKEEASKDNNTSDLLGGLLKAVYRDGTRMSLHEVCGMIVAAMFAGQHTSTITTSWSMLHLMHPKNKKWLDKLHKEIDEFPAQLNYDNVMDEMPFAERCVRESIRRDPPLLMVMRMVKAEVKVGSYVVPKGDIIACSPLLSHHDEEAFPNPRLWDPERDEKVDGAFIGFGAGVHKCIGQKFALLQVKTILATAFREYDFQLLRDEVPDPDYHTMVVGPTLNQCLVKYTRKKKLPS

[13] = tested on: Trypanosoma brucei brucei; experiment: GSK_TCAKS: pIC50 Trypanosoma brucei viability assay using luminiscence. Assay plates (1536-well) were prepared. T. brucei cultures were harvested and counted in a CASY cell counter. A parasite suspension was prepared at a final concentration of 5 * 10^4 cells/mL in complete HMI9 medium and 6uL was dispensed to all wells containing compounds using a Multidrop Combi dispenser. 6uL of HMI9 media with 0.4% DMSO were dispensed to control columns. Plates were incubated for 24 h at 37C, 5% CO2 then tempered for 10 min at room temperature. ATP content was quantified by adding 4 uL of CellTiter-Glo Reagent (Promega) according to the manufacturer's instructions. Luminescence was measured using a ViewLux.; type: functional, organism-based; conditions: Lister 427, CASY

| Compound | IC50 [1] [µM] | IC50 [2] [µM] | IC50 [3] [µM] | IC50 [4] [µM] | IC50 [5] [µM] | IC50 [6] [µM] | IC50 at 48 h [7] [µM] | IC50 [8] [µM] | IC50 [9] [µM] | IC50 [10] [µM] | IC50 [11] [µM] | IC50 [12] [µM] | IC50 [13] [µM] |
| --- | --- | --- | --- | --- | --- | --- | --- | --- | --- | --- | --- | --- | --- |
| CN(C)c1ccc(-c2cc3nccnc3c(OC[C@H]3CCCNC3)n2)cn1 | 20 | 1.58 | 2 | 25.1 | 20 | 20 | 63.1 | > 50.1 | > 50.1 | 15.8 | 1.58 |  |  |
| CC(C)Nc1nccc(-c2c(-c3ccc(F)cc3)ncn2C2CCOCC2)n1 | > 50.1 | 0.2 | 5.01 | 15.8 | > 50.1 | 25.1 | > 100 | 25.1 | 0.316 | > 50.1 | 0.282 | > 100 |  |
| CN(C)CCOc1ccc(N2CCN(S(=O)(=O)c3ccc(Cl)cc3)CC2)cc1 | > 50.1 | 0.501 | 20 | 31.6 | > 50.1 | 31.6 | 50.1 | 39.8 | 0.631 | 15.8 | 0.631 |  | 25.1 |
| CCCCNc1nccc(-c2c(-c3ccc(F)cc3)nn3c(N4CCOCC4)cccc23)n1 | > 50.1 | 1 | 10 | > 50.1 | 12.6 | 6.31 | > 100 | > 50.1 | 3.16 | 10 | 0.398 | > 100 |  |
| COc1cc(NC(=O)Nc2cccc(CNC(=O)OC3CCCCC3)c2)ccc1-c1cnco1 | 15.8 | 31.6 | 0.251 | 20 | 10 | > 50.1 | 39.8 | > 50.1 | 25.1 | 10 | 1 | 25.1 |  |
| FC(F)(F)c1cc(C2CCCN(Cc3c[nH]c4ccccc34)C2)nc2ncnn12 (stereo not drawn) | > 50.1 | 6.31 | > 39.8 | > 50.1 | 15.8 | > 50.1 | > 100 | > 50.1 | 10 | 20 | 1.58 |  | > 39.8 |
| CCN(C)Cc1ccc(N2CCC(NS(=O)(=O)c3ccc4c(c3)CCO4)CC2)nc1 | > 50.1 | 1 | > 39.8 |  | > 50.1 | > 50.1 | > 100 | > 50.1 | 1.26 | 12.6 | 0.631 | > 100 | 39.8 |
| Cn1cncc1CN1CCC2(CC1)COC(Cc1ccccc1)C2 (stereo not drawn) | > 50.1 | 0.316 | > 39.8 |  | > 50.1 | > 50.1 | > 100 | 12.6 | 0.501 | 25.1 | 0.316 | 1 | > 39.8 |
| N#Cc1nc(C=Cc2ccccc2)oc1NCc1cccnc1 | 15.8 | 0.398 | 15.8 | 31.6 | 31.6 | 39.8 | > 100 | 25.1 | 0.398 | 12.6 | 0.251 |  | 31.6 |
| CC(C)Oc1ccc(C(=O)Nc2ccc(N3CCOCC3)c(Cl)c2)cc1 | > 50.1 | 1.26 | 12.6 | 3.16 | > 50.1 | > 50.1 | 31.6 | > 50.1 | 1.26 | 10 | 1.58 | > 100 |  |
| Fc1ccccc1N1C[C@H]2CCN(c3cccnc3)C[C@H]2C1 | > 50.1 | 0.2 | 31.6 |  | > 50.1 | > 50.1 | > 100 | 12.6 | 0.2 | 12.6 | 0.2 | 0.0631 | > 39.8 |
| Cn1c(CN2CCN(c3ncc(C(F)(F)F)cc3Cl)CC2)nc2ccncc21 | > 50.1 | 1 | 6.31 |  | 6.31 | > 50.1 | > 100 | 5.01 | 1 | 10 | 0.794 | 0.0794 | > 39.8 |
| CC(Cn1ccnc1)NC(=O)C=Cc1ccc(Cl)cc1 (stereo not drawn) | > 50.1 | 0.631 | > 39.8 | > 50.1 | > 50.1 | > 50.1 | > 100 | > 50.1 | 1 | > 50.1 | 0.398 | 0.158 |  |
| CCOc1ccc(NC(=O)C=Cc2ccc(CC)o2)cc1 | > 50.1 | 15.8 | 15.8 | 25.1 | 20 | 50.1 | 79.4 | 20 | 25.1 | 31.6 | 2 | > 100 |  |
| Nc1ncnc2c1ncn2[C@@H]1O[C@H](CO)C[C@H]1O [CORDYCEPIN] |  | 1.26 | 0.0126 | > 50.1 | > 50.1 | > 50.1 | > 100 | > 50.1 | 2 | > 50.1 | 1.12 | > 100 | 0.01 |
| c1cncc(CN(Cc2ccco2)Cc2c[nH]nc2-c2cccs2)c1 | > 50.1 | 0.0398 | 25.1 | 1.26 | 20 | > 50.1 | > 100 | 31.6 | 0.0501 | 31.6 | 0.02 | 0.0794 |  |
| C[C@@H](Oc1cc(-n2cnc3ccc(CC(O)CO)cc32)sc1C(N)=O)c1ccccc1Cl (stereo partly drawn) | 0.126 | 12.6 | 0.631 | 31.6 | 39.8 | 39.8 | > 100 | 25.1 | 50.1 |  | 3.16 | 25.1 | 0.794 |
